Measurements reported in patent publication US4971967A, “Quinolinecarboxylic acid derivatives, antibacterial compositions and use” (Kanebo Ltd, priority 1989, dated 1990).
In brackets after ≈: the same amount, converted by molar mass.

How the values were obtained:
[1] = Acute toxicity (Experiment 5); details: mouse, in vivo, po, 2000 mg/kg
Protocol: The compound (A) or (J) of the present invention was suspended in 1% (w/v) aqueous gum arabic to prepare a suspension in concentration of 100 mg/ml. The suspension was orally administered to ddY male mice (5 weeks age, weighing 20 to 25 g, 5 mice in each group), which had been fasted for 18 hours, at a rate of 2000 mg/kg body weight of the compound (A) or (J).

[2] = system: Pseudomonas aeruginosa IFO 3445; experiment: Antibacterial activity (MIC), P. aeruginosa IFO 3445; assay type: cell-based; details: Pseudomonas aeruginosa, IFO3445, Pseudomonas aeruginosa IFO 3445, Gram -; read-out: Minimum inhibitory concentration (MIC)
How it was run: (§1)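 Test compounds were dissolved at 5000 μg/ml in 0.1 N aqueous NaOH or in sterile distilled water, then diluted with sterile water to a 1000 μg/ml standard solution. MICs were determined by the Japan Society of Chemotherapy standard method.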

[3] = system: Proteus vulgaris OX-19; experiment: Antibacterial activity (MIC), Proteus vulgaris OX-19; assay type: cell-based; details: OX19; Proteus vulgaris OX-19, Gram -; read-out: Minimum inhibitory concentration (MIC)
How it was run: as §1

[4] = system: Pseudomonas aeruginosa E-2; experiment: Effect on treatment of general infectious disease, P. aeruginosa E-2 (Experiment 3); assay type: in vivo, ddY male mice infected with Pseudomonas aeruginosa; details: E2, 168 h, oral, 1 h after i.p. infection, 3.1×10^4 CFU/mouse, survival after one week
Protocol: Pseudomonas aeruginosa E-2 (3.1×10^4 CFU/mouse)
The test microorganisms were subjected to standing culture in Trypto-Soya Agar "Nissui" (made by Nissui Seiyaku K.K., Japan) at 37° C. for 16 to 18 hours. The culture was then diluted with PBS (Dulbecco's phosphate buffered saline) and mixed with an equivalent amount of 10% (w/v) Mucin (BACTO MUCIN BACTERIOLOGICAL, made by Difco Co.) to prepare a microorganism solution. The thus prepared microorganism solution (0.5 ml each) was intraperitoneally inoculated to ddY male mice (5 weeks age, weighing 25-28 g, 5 mice in each group), to infect the animals. One hour after the infection, the compound (A) or (J) of the present invention or the known compound (X) suspended in 1% (w/v) aqueous gum arabic or the known compound (Y) dissolved in sterilized distilled water was orally adiministered to mice.
The mice were daily observed for one week, and from the survival number of mice after one week, the 50% effective dose (ED50) was calculated by Weil method.

[5] = system: Bacillus subtilis ATCC 6633; experiment: Antibacterial activity (MIC), Bacillus subtilis ATCC 6633; assay type: cell-based
How it was run: as §1

[6] = system: Pseudomonas aeruginosa NCTC 10490; experiment: Antibacterial activity (MIC), P. aeruginosa NCTC 10490; assay type: cell-based; details: Pseudomonas aeruginosa, NCTC10490, Pseudomonas aeruginosa NCTC 10490, Gram -; read-out: Minimum inhibitory concentration (MIC)
How it was run: as §1

[7] = system: Micrococcus luteus ATCC 9341; experiment: Antibacterial activity (MIC), Micrococcus luteus ATCC 9341; assay type: cell-based; details: ATCC9341; Micrococcus luteus ATCC 9341, Gram +; read-out: Minimum inhibitory concentration (MIC)
How it was run: as §1

[8] = system: Streptococcus faecalis IID 682; experiment: Antibacterial activity (MIC), Streptococcus faecalis IID 682; assay type: cell-based; details: Enterococcus faecalis, IID682, Streptococcus faecalis IID 682, Gram +; read-out: Minimum inhibitory concentration (MIC)
How it was run: as §1

[9] = system: Escherichia coli KC-14; experiment: Antibacterial activity (MIC), E. coli KC-14; assay type: cell-based; details: KC14; Escherichia coli KC-14, Gram -; read-out: Minimum inhibitory concentration (MIC)
How it was run: as §1

[10] = system: Salmonella typhimurium IID 971; experiment: Antibacterial activity (MIC), Salmonella typhimurium IID 971; assay type: cell-based; details: Salmonella enterica; Salmonella typhimurium IID 971, Gram -; read-out: Minimum inhibitory concentration (MIC)
How it was run: as §1

[11] = system: Acinetobacter calcoaceticus AC 54; experiment: Antibacterial activity (MIC), Acinetobacter calcoaceticus AC 54; assay type: cell-based; details: Acinetobacter calcoaceticus, AC54, read-out: Minimum inhibitory concentration (MIC), Acinetobacter calcoaceticus AC 54, Gram -
How it was run: as §1

Row | Structure (SMILES) | death of mice [1] | MIC [2] [µg/mL] | MIC [3] [µg/mL] | ED50 [4] [mg/kg] | MIC ([5]; Bacillus subtilis, ATCC6633, Bacillus subtilis ATCC 6633, Gram +, read-out: Minimum inhibitory concentration (MIC)) [µg/mL] | MIC [6] [µg/mL] | MIC [7] [µg/mL] | MIC [8] [µg/mL] | MIC [9] [µg/mL] | MIC [10] [µg/mL] | Minimum inhibitory concentration (MIC) ([5]; Bacillus subtilis ATCC 6633, Gram +) [µg/mL] | MIC [11] [µg/mL]
1 | CCN1CCN(c2c(F)cc3c(=O)c(C(=O)O)c4scc5n4c3c2N(C)C5)CC1 [Compound (J), 9,1-(Methylimino)methano-7-fluoro-8-(4-ethyl-1-piperazinyl)-5-oxo-5H-thiazolo[3,2-a]quinoline-4-carboxylic acid] | no death of mice was observed | 0.78 (≈ 1.87 µM) | 0.025 (≈ 0.06 µM) | 6.8 | 0.025 (≈ 0.06 µM) | 0.39 (≈ 0.936 µM) | 0.39 (≈ 0.936 µM) | 0.1 (≈ 0.24 µM) |  |  |  | 
2 | CN1CCN(c2c(F)cc3c(=O)c(C(=O)O)c4scc5n4c3c2N(C)C5)CC1 [Compound (A), 9,1-(Methylimino)methano-7-fluoro-8-(4-methyl-1-piperazinyl)-5-oxo-5H-thiazolo[3,2-a]quinoline-4-carboxylic acid] | no death of mice was observed | 0.39 (≈ 0.969 µM) | 0.0125 (≈ 0.0311 µM) | 10.2 |  | 0.2 (≈ 0.497 µM) | 0.39 (≈ 0.969 µM) | 0.1 (≈ 0.248 µM) | 0.05 (≈ 0.124 µM) | 0.05 (≈ 0.124 µM) | 0.006 | 0.025 (≈ 0.0621 µM)
